What was measured:
SGC7901 cells = experiment: MTT assay, photodynamic therapy on SGC7901 cells; assay type: cell-based, human
Text: (§1) The cells in logarithmic growth phase were collected and inoculated on 24-well culture plates. When reaching 70%-80% confluence, cells were divided randomly into the following groups: control (the parallel control group without photosensitizer and irradiation), irradiation (irradiation treatment alone without photosensitizer); (photosensitizer treatment alone without irradiation), photodynamic treatment (treatment by photosensitizer in combination with irradiation). For the photosensitizer alone treatment group and photodynamic treatment group, an appropriate amount of Photohexer-1 (P-1) or Photohexer-2 (P-2) was respectively added away from light to give a final concentration of 0.8, 1.6, 3.2, 6.4 μM. Each group set 3 replicates. Cells were incubated with the active agent, different treatments were carried out according to the grouping. […] After treatment and digestion of each group of cells, it was inoculated into a 96-well plate at 100 μL/well, and four wells were set for each treatment. MTT assay was performed after 24 h from inoculation: 20 μL MTT solution was added to each well under the condition away from light, and the culture was continued for 4 hours. 150 μL DMSO was added to each well after discarding the supernatant. After 15 min of dissolution, the absorbance value (OD value) was measured using a microplate reader and the relative survival rate of cells was calculated according to the following formula: […]

[1] = Storage stability determination; assay type: physicochemical; conditions: 3 months of storage in dark at 2-4
Description: The storage stability of Photohexer-1 and Photohexer-2 was determined by conventional methods in the art.

7721 cells = experiment: MTT assay, photodynamic therapy on 7721 cells; assay type: cell-based, human
Text: as §1

MCF-7 cells = experiment: MTT assay, photodynamic therapy on MCF-7 cells; assay type: cell-based, human
Text: as §1

Caco2 cells = experiment: MTT assay, photodynamic therapy on Caco2 cells; assay type: cell-based, human
Text: as §1

[2] = 3.2 μM alone treatment, without irradiation
[3] = 3.2 μM combined with 2.6 J/cm^2 light irradiation
[4] = 3.2 μM combined with 5.2 J/cm^2 light irradiation
[5] = 3.2 μM combined with 10.4 J/cm^2 light irradiation
[6] = 6.4 μM alone treatment, without irradiation
[7] = 6.4 μM combined with 2.6 J/cm^2 light irradiation
[8] = 6.4 μM combined with 5.2 J/cm^2 light irradiation
[9] = 6.4 μM combined with 10.4 J/cm^2 light irradiation
[10] = 0.8 μM alone treatment, without irradiation
[11] = 0.8 μM combined with 2.6 J/cm^2 light irradiation
[12] = 0.8 μM combined with 5.2 J/cm^2 light irradiation
[13] = 0.8 μM combined with 10.4 J/cm^2 light irradiation
[14] = 1.6 μM alone treatment, without irradiation
[15] = 1.6 μM combined with 2.6 J/cm^2 light irradiation
[16] = 1.6 μM combined with 5.2 J/cm^2 light irradiation
[17] = 1.6 μM combined with 10.4 J/cm^2 light irradiation

Question: For `C=CC1=C(C)c2cc3[nH]c(cc4nc(cc5[nH]c(cc1n2)c(C)c5CCC(=O)[O-])C(CCC(=O)[O-])=C4C)c(C)c3C(C)OCCCCCC.[Na+].[Na+]` (stereo not drawn) [Photohexer P-1, 2-(1-hexyloxyethyl)-6,7-bis(propionatesodium)-1,3,5,8-tetramethyl-4-vinylporphyrin], which Cell survival rate (SGC7901 cells; [2]) is on record?
Answer: 95.80 ± 1.59%

Question: And the Cell survival rate (SGC7901 cells; [3])?
Answer: 88.70 ± 1.24%

Question: What about the Cell survival rate (SGC7901 cells; [4]) of the same molecule?
Answer: 85.49 ± 0.99%

Question: And the Cell survival rate (SGC7901 cells; [5])?
Answer: 77.02 ± 0.04%

Question: What about the Cell survival rate (SGC7901 cells; [6]) of the same molecule?
Answer: 89.77 ± 4.99%

Question: What about the Cell survival rate (SGC7901 cells; [7]) of the same molecule?
Answer: 77.76 ± 0.22%

Question: And the Cell survival rate (SGC7901 cells; [8])?
Answer: 69.94 ± 0.56%

Question: What about the Cell survival rate (SGC7901 cells; [9]) of the same molecule?
Answer: 38.34 ± 0.13%

Question: And the “killing effect of photodynamic therapy” value (SGC7901 cells; drug-dose and light-intensity dependent)?
Answer: obvious killing effect

Question: And the “storage stability (content change by HPLC test)” value [1]?
Answer: no content change

Question: And the Cell survival rate (7721 cells; [10])?
Answer: 101.56 ± 4.08%

Question: What about the Cell survival rate (7721 cells; [11]) of the same molecule?
Answer: 97.88 ± 4.08%

Question: What about the Cell survival rate (7721 cells; [12]) of the same molecule?
Answer: 95.52 ± 3.42%

Question: And the Cell survival rate (7721 cells; [13])?
Answer: 94.75 ± 4.13%

Question: What about the Cell survival rate (7721 cells; [14]) of the same molecule?
Answer: 100.75 ± 4.14%

Question: What about the Cell survival rate (7721 cells; [15]) of the same molecule?
Answer: 93.31 ± 3.99%

Question: What about the Cell survival rate (7721 cells; [16]) of the same molecule?
Answer: 92.36 ± 2.91%

Question: What about the Cell survival rate (7721 cells; [17]) of the same molecule?
Answer: 91.35 ± 3.59%

Question: And the Cell survival rate (7721 cells; [2])?
Answer: 97.51 ± 3.98%

Question: What about the Cell survival rate (7721 cells; [3]) of the same molecule?
Answer: 94.92 ± 3.80%

Question: What about the Cell survival rate (7721 cells; [4]) of the same molecule?
Answer: 92.13 ± 2.77%

Question: What about the Cell survival rate (7721 cells; [5]) of the same molecule?
Answer: 88.59 ± 2.96%

Question: What about the Cell survival rate (7721 cells; [6]) of the same molecule?
Answer: 96.52 ± 3.94%

Question: And the Cell survival rate (7721 cells; [7])?
Answer: 94.42 ± 3.87%

Question: And the Cell survival rate (7721 cells; [8])?
Answer: 90.25 ± 4.07%

Question: And the Cell survival rate (7721 cells; [9])?
Answer: 84.98 ± 1.97%

Question: And the “toxic and side effects” value (7721 cells; alone or in combination with light irradiation)?
Answer: no obvious toxic and side effects

Question: What about the “sensitivity compared between P-1 and P-2” value (MCF-7 cells) of the same molecule?
Answer: more sensitive than P-2

Question: And the Cell survival rate (MCF-7 cells; [10])?
Answer: 102.94 ± 3.04%

Question: What about the Cell survival rate (MCF-7 cells; [11]) of the same molecule?
Answer: 78.02 ± 4.55%

Question: What about the Cell survival rate (MCF-7 cells; [12]) of the same molecule?
Answer: 68.03 ± 3.97%

Question: What about the Cell survival rate (MCF-7 cells; [13]) of the same molecule?
Answer: 63.99 ± 4.42%

Question: What about the Cell survival rate (MCF-7 cells; [14]) of the same molecule?
Answer: 82.48 ± 2.24%

Question: What about the Cell survival rate (MCF-7 cells; [15]) of the same molecule?
Answer: 65.32 ± 2.43%

Question: And the Cell survival rate (MCF-7 cells; [16])?
Answer: 47.92 ± 2.82%

Question: And the Cell survival rate (MCF-7 cells; [17])?
Answer: 49.71 ± 3.94%

Question: And the Cell survival rate (MCF-7 cells; [2])?
Answer: 71.23 ± 1.76%

Question: And the Cell survival rate (MCF-7 cells; [3])?
Answer: 54.13 ± 2.04%

Question: And the Cell survival rate (MCF-7 cells; [4])?
Answer: 45.96 ± 1.76%

Question: What about the Cell survival rate (MCF-7 cells; [5]) of the same molecule?
Answer: 46.98 ± 2.67%

Question: What about the Cell survival rate (MCF-7 cells; [6]) of the same molecule?
Answer: 60.81 ± 1.04%

Question: And the Cell survival rate (MCF-7 cells; [7])?
Answer: 50.88 ± 1.02%

Question: What about the Cell survival rate (MCF-7 cells; [8]) of the same molecule?
Answer: 41.69 ± 1.02%

Question: And the Cell survival rate (MCF-7 cells; [9])?
Answer: 44.28 ± 1.07%

Question: What about the Cell survival rate (Caco2 cells; [10]) of the same molecule?
Answer: 99.34 ± 3.40%

Question: What about the Cell survival rate (Caco2 cells; [11]) of the same molecule?
Answer: 95.31 ± 3.86%

Question: What about the Cell survival rate (Caco2 cells; [12]) of the same molecule?
Answer: 93.10 ± 3.96%

Question: What about the Cell survival rate (Caco2 cells; [13]) of the same molecule?
Answer: 88.18 ± 4.24%

Question: And the Cell survival rate (Caco2 cells; [14])?
Answer: 97.36 ± 2.42%

Question: What about the Cell survival rate (Caco2 cells; [15]) of the same molecule?
Answer: 91.33 ± 2.69%

Question: And the Cell survival rate (Caco2 cells; [16])?
Answer: 89.01 ± 2.88%

Question: What about the Cell survival rate (Caco2 cells; [17]) of the same molecule?
Answer: 87.63 ± 3.49%

Question: What about the Cell survival rate (Caco2 cells; [2]) of the same molecule?
Answer: 95.34 ± 1.67%

Question: What about the Cell survival rate (Caco2 cells; [3]) of the same molecule?
Answer: 89.49 ± 2.15%

Question: What about the Cell survival rate (Caco2 cells; [4]) of the same molecule?
Answer: 87.46 ± 1.67%

Question: And the Cell survival rate (Caco2 cells; [5])?
Answer: 84.32 ± 2.76%

Question: And the Cell survival rate (Caco2 cells; [6])?
Answer: 83.33 ± 1.24%

Question: What about the Cell survival rate (Caco2 cells; [7]) of the same molecule?
Answer: 81.65 ± 1.07%

Question: What about the Cell survival rate (Caco2 cells; [8]) of the same molecule?
Answer: 74.26 ± 1.14%

Question: What about the Cell survival rate (Caco2 cells; [9]) of the same molecule?
Answer: 66.34 ± 1.17%
